From patent US20170298402A1, “SELF-LABELING NUCLEIC ACIDS AND METHODS OF USE” (President and Fellows of Harvard College, priority 2014, published 2017)

Test system: post-round 6 RNA pool
Experiment: Streptavidin gel mobility shift of post-round 6 RNA pool with each electrophilic probe
Assay type: biochemical
Conditions: streptavidin incubation and gel mobility shift
Protocol: The reaction between small-molecule probe(s) and the RNA pool was performed as follows: the RNA pool (1 μM) in buffer containing 150 mM NaCl, 25 mM Na-HEPES, pH 7.4, was heated at 65° C. for 5 minutes, then allowed to cool for an additional 5 minutes. MgCl2 (10 mM) was then added for a total volume of 45 μL and the solution incubated for 10 minutes, followed by addition of 1.3 mM of the biotinylated small-molecule probe in DMSO. After incubation for the desired time, the RNA was precipitated by the addition of 5 μL of 3 M NaOAc and 180 μL of EtOH.
The pellet resulting from EtOH precipitation of a reaction of RNA (750 ng) with a small-molecule probe was resuspended in 21 μL H2O. The RNA (7 μL) and streptavidin (NEB; 1 μg) were incubated at room temperature for 25 minutes and then combined with gel electrophoresis loading buffer. The sample was electrophoresed on a 10% PAGE denaturing gel (240 V, 35 minutes) and visualized following incubation with SYBR Green II (Life Technologies).
To identify the electrophile(s) that reacted with the enriched RNA, we performed one additional round of in vitro selection and then incubated the resulting post-round 6 RNA pool with each of the eight electrophilic probes.

SMILES: CC1O[C@H]1CCCOCCOC(=O)CCCCC1SCC2NC(=O)NC21 (stereo partly shown) [probe 1]
- reaction with the post-round 6 RNA pool: reacted
